# In US6759212B1, “Cell cycle-regulating proteins” (Chugai Seiyaku Kabushiki Kaisha, priority 1997, dated 2004):
# How the values were obtained:
# [1] = test system: NRK-49F cells; assay: Abnormal cytokinesis: cells having two or more nuclei after transient transfection; type: cell-based, rat; conditions: 72 hours after transfection
# Description: (§1) To confirm the generality of this observation, AIM-1 (WT) and AIM-1 (K-R) plasmids were transiently expressed in NRK-49F cells and human diploid fibroblast KD cells and the results were compared with those obtained in a control transfected with vector alone. These constructs were transfected into cell-s with a reporter construct […] to prepare β-galactosidase-expressing plasmids for use as a positive internal control for transfection (Table 1).
# (§2) (2) Abnormal Cytokinesis in Cells Expressing AIM-1 (K-R) Plasmid FLAG-AIM-1 (WT), FLAG-AIM-1 (K-R) or a control plasmid pEF/hygI was cotransfected with a reporter construct RSV-β-galactosidase at a ratio of 10:1 into NRK-49F cells and human diploid fibroblast KD cells (a kind gift of late Dr. Takeo Kakunaga) by Lipofectin method. After 24 hours, 1×10^3 cells were seeded per 60 mm dish, and 72 hours after transfection, cells were fixed in 1.25% glutaraldehyde/PBS and stained by a method described in literature (Shu et al., J.C.S. 108:2955-62, 1995) to observe expression of β-galactosidase. MvlLu cells were also tested under the conditions described in (1) B above.
# (§3) 1. The figures in the table mean the percentage of cells having two or more nuclei to β-galactosidase positive cells for NRK-49F cells and KD cells or the percentage of cells having two or more nuclei to the total number of cells for MvlLu cells. […]
# [2] = test system: human diploid fibroblast KD cells; assay: as above; type: cell-based; conditions: 72 hours after transfection
# Description: as §1, §2, §3
# [3] = test system: Mv1Lu cells; assay: Abnormal cytokinesis: cells having two or more nuclei, tetracycline-inducible expression, Giemsa staining; type: cell-based, mink; conditions: Mv1Lu, 72 hours
# Protocol: (§4) MvlLu cells carrying vector alone, wild-type FLAG-AIM-1 (WT) or FLAG-AIM-1 (K-R) were grown in the presence or absence of doxycycline (tetracycline analog) for 24 hours and then subjected to western blot with anti-FLAG antibody (FIG. 4A). […] In addition, the size of these cells was much larger than normal cells (FIGS. 4Bf and 5D). In these abnormal cells, however, spindle. functions including chromosome disjunction and late anaphase spindle elongation as well as nuclear division appeared unaffected (data not shown). This was further confirmed by flow cytometry (FACS) (FIG. 4C). […] Namely, apocytes appeared because karyokinesis advances but cytokinesis is inhibited.
# Then, asynchronous cells transfected with vector alone (a, d), FLAG-AIM-1 (WT) (b, e) or FLAG-AIM-1 (K-R) (c, f) were grown with (a-c) or without (d-f) DOX for 72 hours and stained with Giemsa's solution. Results are shown in FIG. 4B, wherein upper panels are called as a, b and c from left to right, and lower panels are called as d, e and f from left to right.
# (2) Abnormal Cytokinesis in Cells Expressing AIM-1 (K-R) Plasmid FLAG-AIM-1 (WT), FLAG-AIM-1 (K-R) or a control plasmid pEF/hygI was cotransfected with a reporter construct RSV-β-galactosidase at a ratio of 10:1 into NRK-49F cells and human diploid fibroblast KD cells (a kind gift of late Dr. Takeo Kakunaga) by Lipofectin method. […]
# [4] = test system: Mv1Lu cells; assay: FACS analysis of DNA content (propidium iodide); type: cell-based, mink; conditions: 72 hour-induction
# Protocol: as §4
# Cell samples were harvested and fixed with ethanol, stained with propidium iodide for FACS analysis.
# [5] = test system: Mv1Lu cells; assay: Growth for 2 weeks with or without DOX, Giemsa staining; type: cell-based, mink; conditions: grown 2 weeks with or without doxycycline
# Protocol: The nuclei of these AIM-1 (K-R)-expressing cells divided 3 to 4 times during 4 to 5 days, resulting in more than 10 nuclei per cell (FIG. 5D).
# Mv1Lu cells transfected with FLAG-AIM-1 (WT) or FLAG-AIM-1 (K-R) were grown with or without DOX for 2 weeks and stained with Giemsa's solution.
substance,measurement,setting,value
"AIM-1 (WT): wild-type rat AIM-1 protein kinase labeled with FLAG at the N-terminus, expressed from plasmid pUHD10-3 or pEF/hygI",percentage of cells having two or more nuclei to β-galactosidase positive cells,[1],7.8%
same,percentage of cells having two or more nuclei to β-galactosidase positive cells,[2],4.8%
same,percentage of cells having two or more nuclei to the total number of cells,[3]; DOX(+) (not induced),0.9%
same,percentage of cells having two or more nuclei to the total number of cells,[3]; DOX(−) (induced),2.8%
same,cell population with 4N or 8N DNA / cell cycle pattern (FACS),[4],normal cell cycle pattern
same,effect on growth potency (mitotic inhibition),[5],not
